The record followed here is patent US12258338B2, “Modulators of the integrated stress response pathway” (EVOTEC INTERNATIONAL GMBH, priority 2019, dated 2025).

For one series, the system named is ATF4. The series can be described thus: HEK-ATF4 High Content Imaging assay (prevention of Tunicamycin induced ISR; ATF4 signal ratio between nucleus and cytoplasm). The format is cell-based. In outline: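 Wild-type HEK293 cells in 0.3% FBS medium were co-treated with compounds and Tunicamycin (3.3 μM in prediluted medium, 11-fold over final) for 6 h at 37 °C. Fixed cells were immunostained for ATF4 with Hoechst nuclei; imaging gave nuclear/cytoplasmic ATF4 ratio, with nuclei counts as toxicity control.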

Series [1] is described as follows: Thermodynamic (Equilibrium) solubility in selected buffer. Type of series: physicochemical. The note with it: for solubility: aqueous buffer, thermodynamic from solid. In a few lines:
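Powdered compound at 1 mg/mL target in 50 mM phosphate pH 2.0, 50 mM acetate pH 5.5 or 50 mM phosphate pH 7.4, stirred overnight at r.t. in the dark, then 0.45 μm filtered. Filtrate quantified by UPLC-UV peak area against a 0.8 mg/mL DMSO reference.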

Where [2] appears, read: Homo sapiens, Wild-type HEK293 cells, Tunicamycin induced ISR, 6 h, read-out: IIEK-ATF4 Activity.
The mark [3] stands for this setting: Table 24 category key, read-out: HEK-ATF4 Activity*.
[4] abbreviates: acetate buffer 50 mM, pH 5, Table 24, read-out: Solubility (μg/mL) pH 5.
Where [5] appears, read: acetate buffer 50 mM, pH 5.5, Table 25, read-out: Solubility (μg/mL) pH 5.5.
Where [6] appears, read: phosphate buffer 50 mM, pH 7.4, Table 24, read-out: Solubility (μg/mL) pH 7.4.

≈ marks a conversion by molar mass, not a printed value. Where two headings read alike, the source gives them in different places.

For the compound `O=C(COc1ccc(Cl)c(F)c1)N[C@H]1CC[C@H](c2nnc([C@H]3C[C@@H](OC(F)(F)F)C3)o2)NC1` [Example 50, 2-(4-chloro-3-fluorophenoxy)-N-[(3S,6R)-6-{5-[(1s,3s)-3-(trifluoromethoxy)cyclobutyl]-1,3,4-oxadiazol-2-yl}piperidin-3-yl]acetamide], the IC50 in the series with ATF4 (setting [2]) and in the series with ATF4 (setting [3]) was 1 to 500 nM in each case. In addition, the solubility in series [1] (setting [4]) came to 78 µg/mL (≈ 158 µM); in series [1] (setting [5]), 78 µg/mL (≈ 158 µM); in series [1] (setting [6]), 63 µg/mL (≈ 128 µM). In addition, in series [1] (pH 2, Table 24), the “Solubility (μg/mL) pH 2” value is on record as “quant.^#”. Further, the “Solubility (μg/mL) pH 2.0” value in series [1] (pH 2.0, Table 25) was “quant.^#”.

`O=C(COc1ccc(Cl)c(F)c1)N[C@H]1CC[C@H](c2nnc(COC(F)(F)F)o2)NC1` [Example 61, 2-(4-chloro-3-fluorophenoxy)-N-[(3S,6R)-6-(5-[(trifluoromethoxy)methyl]-1,3,4-oxadiazol-2-yl}piperidin-3-yl]acetamide]: the IC50 fell in the range of 2000 to 15000 nM with ATF4 (setting [2]) and 500 to 2000 nM in the series on ATF4 (setting [3]). Further, the solubility in series [1] (setting [4]) came out at 156 µg/mL (≈ 345 µM); in series [1] (setting [5]), 156 µg/mL (≈ 345 µM); in series [1] (phosphate buffer 50 mM, pH 2, Table 24, read-out: Solubility (μg/mL) pH 2), 907 µg/mL (≈ 2000 µM); in series [1] (setting [6]), 90 µg/mL (≈ 199 µM).
